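Protocol summary: plate cells (96-well), add compound at 5 concentrations, incubate 48 h, interpolate endpoints linearly. TGI: total growth inhibition.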
How the values were obtained:
Test in all cases: growth of human tumour cells (NCI), 48 h
COLO 205 colon = tested on: COLO 205 colon
HCC-2998 colon = tested on: HCC-2998 colon
HOP-62 NSCLC = tested on: HOP-62 NSCLC
KM12 colon = tested on: KM12 colon
NCI-H226 lung = tested on: NCI-H226 lung
OVCAR-8 ovarian = tested on: OVCAR-8 ovarian
SK-MEL-2 melanoma = tested on: SK-MEL-2 melanoma
SNB-19 CNS = tested on: SNB-19 CNS
U251 CNS = tested on: U251 CNS
UACC-257 melanoma = tested on: UACC-257 melanoma
UO-31 renal = tested on: UO-31 renal
HOP-92 NSCLC = tested on: HOP-92 NSCLC
MDA-MB-231 breast = tested on: MDA-MB-231 breast
MDA-N = tested on: MDA-N
PC-3 prostate = tested on: PC-3 prostate
RXF 393 renal = tested on: RXF 393 renal
SR leukemia = tested on: SR leukemia
DU-145 prostate = tested on: DU-145 prostate
MDA-MB-435 = tested on: MDA-MB-435
T-47D breast = tested on: T-47D breast

CC(C)N(C(=O)C12C3C4C1C1C2C3C41C(=O)N(C(C)C)C(C)C)C(C)C (configuration not stated)
TGI (COLO 205 colon): > 50 µM | TGI (HCC-2998 colon): > 50 µM | TGI (HOP-62 NSCLC): > 50 µM | TGI (KM12 colon): > 50 µM | TGI (NCI-H226 lung): > 50 µM | TGI (OVCAR-8 ovarian): > 50 µM | TGI (SK-MEL-2 melanoma): > 50 µM | TGI (SNB-19 CNS): > 50 µM | TGI (U251 CNS): > 50 µM | TGI (UACC-257 melanoma): > 50 µM | TGI (UO-31 renal): > 50 µM

O=c1n(-c2ccccc2)c(=O)n2c(-c3ccccc3)c(-c3ccccc3)n12
TGI (COLO 205 colon): > 100 µM | TGI (HCC-2998 colon): > 100 µM | TGI (HOP-62 NSCLC): > 100 µM | TGI (HOP-92 NSCLC): > 100 µM | TGI (KM12 colon): > 100 µM | TGI (MDA-MB-231 breast): > 100 µM | TGI (MDA-N): > 100 µM | TGI (NCI-H226 lung): > 100 µM | TGI (OVCAR-8 ovarian): > 100 µM | TGI (PC-3 prostate): > 100 µM | TGI (RXF 393 renal): > 100 µM | TGI (SK-MEL-2 melanoma): > 100 µM | TGI (SNB-19 CNS): > 100 µM | TGI (SR leukemia): > 100 µM | TGI (U251 CNS): > 100 µM | TGI (UACC-257 melanoma): > 100 µM | TGI (UO-31 renal): > 100 µM

O=c1ccn(/C=C/C(O)C(O)CO)c(=O)[nH]1 (configuration not stated)
TGI (COLO 205 colon): > 100 µM | TGI (HCC-2998 colon): > 100 µM | TGI (HOP-62 NSCLC): > 100 µM | TGI (KM12 colon): 40.9 µM | TGI (NCI-H226 lung): > 100 µM | TGI (OVCAR-8 ovarian): > 100 µM | TGI (SK-MEL-2 melanoma): > 100 µM | TGI (SNB-19 CNS): > 100 µM | TGI (U251 CNS): > 100 µM | TGI (UACC-257 melanoma): > 100 µM | TGI (UO-31 renal): > 100 µM

CCC(=O)C(CCN1CCC(N2C(=O)C(CCC#N)c3ccccc32)CC1)(c1ccccc1)c1ccccc1 (configuration not stated)
TGI (COLO 205 colon): 21.4 µM | TGI (DU-145 prostate): 26.5 µM | TGI (HCC-2998 colon): 25.2 µM | TGI (HOP-62 NSCLC): 32.2 µM | TGI (KM12 colon): 28 µM | TGI (MDA-MB-231 breast): 20.8 µM | TGI (MDA-MB-435): 17.6 µM | TGI (NCI-H226 lung): 32.6 µM | TGI (OVCAR-8 ovarian): 23.6 µM | TGI (PC-3 prostate): 43.2 µM | TGI (RXF 393 renal): 16.2 µM | TGI (SK-MEL-2 melanoma): 29.7 µM | TGI (SNB-19 CNS): 32 µM | TGI (SR leukemia): 10.2 µM | TGI (T-47D breast): 29.3 µM | TGI (U251 CNS): 27.8 µM | TGI (UACC-257 melanoma): 26.7 µM | TGI (UO-31 renal): 21.4 µM

From PubChem BioAssay (NCI)
